Source: PubChem BioAssay (NCI)
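Results reflect a 48-hour exposure of cells in 96-well plates to compound at five concentrations. TGI: concentration producing complete growth inhibition.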

Columns and labels:
Experiment in all cases: growth of human tumour cells (NCI), 48 h
HOP-62 NSCLC = test system: HOP-62 NSCLC
MDA-N = test system: MDA-N
PC-3 prostate = test system: PC-3 prostate
HCC-2998 colon = test system: HCC-2998 colon
MDA-MB-231 breast = test system: MDA-MB-231 breast
SK-MEL-2 melanoma = test system: SK-MEL-2 melanoma
OVCAR-3 ovarian = test system: OVCAR-3 ovarian
OVCAR-4 ovarian = test system: OVCAR-4 ovarian
IGROV1 ovarian = test system: IGROV1 ovarian
NCI-H522 lung = test system: NCI-H522 lung
OVCAR-8 ovarian = test system: OVCAR-8 ovarian
LOX IMVI melanoma = test system: LOX IMVI melanoma

Row | Structure (SMILES) | TGI (HOP-62 NSCLC) | TGI (MDA-N) | TGI (PC-3 prostate) | TGI (HCC-2998 colon) | TGI (MDA-MB-231 breast) | TGI (SK-MEL-2 melanoma) | TGI (OVCAR-3 ovarian) | TGI (OVCAR-4 ovarian) | TGI (IGROV1 ovarian) | TGI (NCI-H522 lung) | TGI (OVCAR-8 ovarian) | TGI (LOX IMVI melanoma)
1 | CC(=O)OCC1OC(n2c(=S)[nH]c(-c3ccccc3)c(C#N)c2=O)C(OC(C)=O)C(OC(C)=O)C1OC(C)=O (stereo not drawn) | > 100 µM | > 100 µM | > 100 µM | > 100 µM | > 100 µM | > 100 µM | > 100 µM | > 100 µM | > 100 µM | > 100 µM | > 100 µM | > 100 µM
2 | Cc1cccc(N(CCC#N)S(=O)(=O)c2ccccc2)c1 | > 100 µM | > 100 µM | > 100 µM | > 100 µM | > 100 µM | > 100 µM | > 100 µM | > 100 µM | > 100 µM | > 100 µM | > 100 µM | > 100 µM
3 | C=CC/C(C(=O)OC)=C(/C(=O)OC)N(CCC)CCC | > 100 µM | > 100 µM | > 100 µM | > 100 µM | > 100 µM | > 100 µM | > 100 µM | > 100 µM | > 100 µM | > 100 µM | > 100 µM | > 100 µM
4 | c1ccc2c(c1)CCCN1CCc3ccccc3C21 (stereo not drawn) | > 100 µM | 70.4 µM | > 100 µM | > 100 µM | > 100 µM | > 100 µM | > 100 µM | > 100 µM | > 100 µM | > 100 µM | > 100 µM | > 100 µM
5 | O=c1c2cc(I)ccc2[nH]c(=S)n1Cc1ccccc1 | 63 µM | > 100 µM | > 100 µM | > 100 µM | 66.3 µM | 56 µM | > 100 µM | > 100 µM | 30.3 µM | 42.9 µM | > 100 µM | > 100 µM
6 | N#Cc1c2c(c(Nc3ccc(F)cc3)n3c1nc1ccccc13)CCC2 | 11.2 µM | 9.75 µM | 19 µM | 41.9 µM | 11.3 µM | 40.6 µM | 18.5 µM | 28.4 µM | 11.1 µM | 4.58 µM | 5.83 µM | 5.37 µM
7 | O=c1nc2c(c(-c3cccc(Cl)c3)[nH]1)COC/C2=C\c1cccc(Cl)c1 | > 100 µM | > 100 µM | > 100 µM | > 100 µM | > 100 µM | > 100 µM | > 100 µM | > 100 µM | > 100 µM | > 100 µM | > 100 µM | > 100 µM
8 | O=[N+]([O-])C(=C(Sc1ccccc1)Sc1ccccc1)C(Cl)=C(Cl)Cl | 4.09 µM | 0.675 µM | 5.78 µM | 4.4 µM | 0.408 µM | 5.86 µM | 1.31 µM | 1.46 µM | 2.95 µM | 0.143 µM | 0.831 µM | 1.09 µM
9 | O=C1/C(=C/c2ccc([N+](=O)[O-])cc2)CNC/C1=C\c1ccc([N+](=O)[O-])cc1 | 15.9 µM | 25.5 µM | 21.7 µM | 23.4 µM | 20.2 µM | > 100 µM | 9.61 µM | > 50.9 µM | 4.78 µM | 9.4 µM | 8.36 µM | 5.93 µM
10 | O=C1/C(=C/c2ccc(F)cc2)CNC/C1=C\c1ccc(F)cc1 | 4.56 µM | 5.67 µM | 4.41 µM | 1.74 µM | 13.5 µM | 29 µM | 3.99 µM | > 36.8 µM | 2.52 µM | 3.26 µM | 9.52 µM | 2.33 µM
11 | Cc1ccc(C2=Nc3c(c(C)nn3-c3ccccc3)N=C(C(=O)O)C2)cc1 | > 10 µM | > 10 µM | > 10 µM | > 10 µM | > 10 µM | > 10 µM | > 10 µM | > 10 µM | > 10 µM | > 10 µM | > 10 µM | > 10 µM
12 | O=C1OC[C@@H]2Cc3c([nH]c4ccccc34)[C@@H](c3ccc(O)cc3)N12 | > 84.6 µM | > 100 µM | > 100 µM | > 96.7 µM | > 83.4 µM | 67.6 µM | 43.8 µM | > 86.4 µM | 61.1 µM | 77.6 µM | > 71.7 µM | 46.3 µM
13 | O=C(O)c1ccc(NS(=O)(=O)Cc2ccccc2)cc1 | > 100 µM | > 100 µM | > 100 µM | > 100 µM | > 100 µM | > 100 µM | > 100 µM | > 100 µM | > 100 µM | > 100 µM | > 100 µM | > 100 µM
14 | CCOC(=O)C1C(=O)CC(O)(c2ccccc2)C(C(=O)OCC)C1c1ccc(OC)cc1 (stereo not drawn) | > 100 µM | 16 µM | > 96.4 µM | > 100 µM | > 100 µM | 77.6 µM | 42.8 µM | > 100 µM | > 100 µM | 38.2 µM | > 100 µM | > 64.7 µM
